Measurements published in ChEMBL document CHEMBL5252550, “DYRK1A kinase inhibition with emphasis on neurodegeneration: A comprehensive evolution story-cum-perspective” (Eur J Med Chem, 2018).
Blank lines part the entries; values can stand above or below the compound they belong to.

Assays:
[1] = biological target: T1, Dual specificity tyrosine-phosphorylation-regulated kinase 1A (Homo sapiens, UniProt Q13627); assay: Inhibition of DYRK1A (unknown origin)
[2] = biological target: T1, Dual specificity tyrosine-phosphorylation-regulated kinase 1A; assay: Binding affinity to DYRK1A (unknown origin) assessed as inhibition constant
[3] = biological target: Dual specificity tyrosine-phosphorylation-regulated kinase 1B (Homo sapiens, UniProt Q9Y463); assay: Inhibition of DYRK1B (unknown origin)
[4] = biological target: T1, Dual specificity tyrosine-phosphorylation-regulated kinase 1A; assay: Inhibition of DYRK1A (unknown origin) autophosphorylation
[5] = biological target: T1, Dual specificity tyrosine-phosphorylation-regulated kinase 1A; assay: Inhibition of DYRK1A (unknown origin) in presence of ATP
Acetylcholinesterase = Acetylcholinesterase (Homo sapiens, UniProt P22303); assay: Inhibition of AChE (unknown origin)
[6] = biological target: T2, Dual specificity tyrosine-phosphorylation-regulated kinase 2 (Homo sapiens, UniProt Q92630); assay: Inhibition of DYRK2 (unknown origin)
T2 sequence (Q92630 whole entry): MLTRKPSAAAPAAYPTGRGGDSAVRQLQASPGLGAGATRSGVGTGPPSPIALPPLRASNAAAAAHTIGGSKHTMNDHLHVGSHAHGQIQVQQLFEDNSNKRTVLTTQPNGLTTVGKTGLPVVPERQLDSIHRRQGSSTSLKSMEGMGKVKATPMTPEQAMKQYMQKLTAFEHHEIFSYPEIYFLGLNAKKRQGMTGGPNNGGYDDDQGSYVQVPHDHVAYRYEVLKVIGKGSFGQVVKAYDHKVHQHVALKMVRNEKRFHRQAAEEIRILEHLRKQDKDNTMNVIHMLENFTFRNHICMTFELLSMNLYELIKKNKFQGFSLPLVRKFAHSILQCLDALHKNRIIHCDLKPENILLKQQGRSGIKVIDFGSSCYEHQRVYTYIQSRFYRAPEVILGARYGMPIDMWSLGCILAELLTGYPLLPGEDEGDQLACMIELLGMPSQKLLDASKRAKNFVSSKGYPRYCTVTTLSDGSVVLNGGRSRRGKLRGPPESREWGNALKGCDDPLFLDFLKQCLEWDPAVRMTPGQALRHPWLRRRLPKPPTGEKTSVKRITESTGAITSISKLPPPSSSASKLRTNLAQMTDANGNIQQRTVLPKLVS

[7] = test system: CCN1/C(=C/C(C)=O)Sc2ccc(O)cc21; assay: Competitive inhibition of DYRK1A (unknown origin) assessed as michaelis-constant (Km); conditions: Homo sapiens
[8] = biological target: T3, Dual specificity tyrosine-phosphorylation-regulated kinase 3 (Homo sapiens) (UniProt O43781); assay: Inhibition of DYRK3 (unknown origin) at 10 uM relative to control
T3 sequence (whole entry): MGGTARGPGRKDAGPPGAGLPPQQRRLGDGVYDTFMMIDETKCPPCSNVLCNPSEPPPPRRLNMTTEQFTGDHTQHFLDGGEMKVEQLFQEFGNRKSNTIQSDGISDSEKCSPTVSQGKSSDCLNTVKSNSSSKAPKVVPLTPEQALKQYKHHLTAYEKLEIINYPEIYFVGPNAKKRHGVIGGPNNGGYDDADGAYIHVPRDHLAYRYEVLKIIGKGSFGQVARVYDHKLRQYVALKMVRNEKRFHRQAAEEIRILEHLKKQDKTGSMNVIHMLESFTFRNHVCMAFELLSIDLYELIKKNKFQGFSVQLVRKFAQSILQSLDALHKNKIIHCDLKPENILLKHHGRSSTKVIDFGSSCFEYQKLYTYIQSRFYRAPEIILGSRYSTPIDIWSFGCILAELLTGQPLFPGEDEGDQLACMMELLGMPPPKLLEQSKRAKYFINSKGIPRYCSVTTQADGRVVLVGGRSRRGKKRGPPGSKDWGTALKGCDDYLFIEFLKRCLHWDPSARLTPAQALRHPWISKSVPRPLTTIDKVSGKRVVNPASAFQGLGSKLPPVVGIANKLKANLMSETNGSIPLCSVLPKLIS

[9] = biological target: T4, Dual specificity tyrosine-phosphorylation-regulated kinase 2 (Homo sapiens) (UniProt Q92630); assay: Inhibition of DYRK2 (unknown origin) at 10 uM relative to control
T4 sequence (whole entry): T2 sequence (Q92630 whole entry)

Chain of Dual specificity tyrosine-phosphorylation-regulated kinase 1B (Q9Y463 whole entry): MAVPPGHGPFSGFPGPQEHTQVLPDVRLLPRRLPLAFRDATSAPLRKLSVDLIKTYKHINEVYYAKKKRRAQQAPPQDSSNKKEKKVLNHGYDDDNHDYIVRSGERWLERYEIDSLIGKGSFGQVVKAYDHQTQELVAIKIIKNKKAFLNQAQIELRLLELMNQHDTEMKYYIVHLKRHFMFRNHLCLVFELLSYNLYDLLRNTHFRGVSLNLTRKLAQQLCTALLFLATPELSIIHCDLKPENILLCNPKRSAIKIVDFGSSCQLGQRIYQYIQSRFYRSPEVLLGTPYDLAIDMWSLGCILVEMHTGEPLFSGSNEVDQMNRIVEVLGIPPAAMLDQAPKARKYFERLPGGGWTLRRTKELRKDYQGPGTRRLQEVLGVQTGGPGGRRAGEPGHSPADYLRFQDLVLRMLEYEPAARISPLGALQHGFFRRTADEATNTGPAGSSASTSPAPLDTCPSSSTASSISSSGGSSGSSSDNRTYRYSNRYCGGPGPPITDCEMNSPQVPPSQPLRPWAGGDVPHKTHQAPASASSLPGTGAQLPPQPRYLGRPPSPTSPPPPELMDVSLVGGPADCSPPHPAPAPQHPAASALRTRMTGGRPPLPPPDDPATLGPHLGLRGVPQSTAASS
Chain of Acetylcholinesterase (P22303 whole entry): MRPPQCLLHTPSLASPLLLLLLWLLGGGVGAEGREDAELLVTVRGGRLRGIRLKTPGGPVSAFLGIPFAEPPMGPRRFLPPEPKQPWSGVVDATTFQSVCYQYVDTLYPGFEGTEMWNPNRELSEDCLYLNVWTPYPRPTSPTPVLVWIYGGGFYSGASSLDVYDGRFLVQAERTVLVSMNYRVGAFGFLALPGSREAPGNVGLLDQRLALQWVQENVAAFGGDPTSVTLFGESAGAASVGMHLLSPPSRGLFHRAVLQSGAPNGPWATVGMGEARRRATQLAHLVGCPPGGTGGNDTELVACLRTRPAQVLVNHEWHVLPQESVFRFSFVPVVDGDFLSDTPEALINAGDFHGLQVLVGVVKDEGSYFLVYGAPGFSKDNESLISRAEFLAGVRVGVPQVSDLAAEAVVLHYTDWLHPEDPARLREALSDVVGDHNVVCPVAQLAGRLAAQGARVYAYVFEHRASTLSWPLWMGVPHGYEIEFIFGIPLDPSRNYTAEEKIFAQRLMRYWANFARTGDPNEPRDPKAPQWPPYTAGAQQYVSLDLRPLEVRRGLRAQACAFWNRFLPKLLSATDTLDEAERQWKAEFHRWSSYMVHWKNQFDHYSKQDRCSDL

Ki [2]: 5850 nM
Compound: O=C1c2ccc(O)c(O)c2C(=O)c2c(O)ccc(O)c21 [QUINALIZARIN]

IC50 [4]: 2500 nM
Compound: COc1cccc(NC(=O)Nc2nnc(-c3ccncc3)s2)c1

IC50 [1]: 7.9 nM
Compound: N=C1NC(=O)/C(=C/c2ccc3c(c2)CCO3)S1

IC50 [5]: 15000 nM
Compound: Cc1cc(=O)oc2cc3c([N+](=O)[O-])c(O)ccc3cc12

IC50 [5]: 600 nM
Compound: Cc1cc(=O)oc2cc3cc(O)ccc3cc12

IC50 [4]: 50000 nM
Compound: COc1cc(/C=C2\C(=O)NN(c3ccc(Cl)c(Cl)c3)C2=O)ccc1O

IC50 [3]: 220 nM
Compound: COC(=N)c1nc2ccc3ncnc(Nc4ccc(Br)cc4F)c3c2s1

inhibition [8]: > 90% | inhibition [9]: > 90%
Compound: CCN1/C(=C/C(C)=O)Sc2ccc(O)cc21

The next lines start with the compound.

Compound: CO[C@H]1[C@H](O)[C@@H](O)[C@H](n2c3c(Cl)cccc3c3c4c(c5c6cccc(Cl)c6[nH]c5c32)C(=O)NC4=O)O[C@@H]1CO [REBECCAMYCIN]
IC50 [1]: 19 nM

Compound: CCOc1cc(/C=C2\SC(=S)NC2=O)ccc1OC
IC50 [1]: 60.2 nM

Compound: COC(=N)c1nc2ccc3ncnc(Nc4ccc(Cl)cc4Cl)c3c2s1
IC50 [3]: 280 nM

Compound: CN1CCc2cc3c(c4c2C1Cc1ccccc1-4)OCO3 (stereo not drawn) [ROEMERINE]
IC50 [1]: 15000 nM

Compound: CCC(=O)O[C@@H](C/C=C(\C)C(=O)OC)[C@H](C(=O)OC)[C@@H](OC(C)=O)[C@@H](C[C@H](C)[C@H](OC(=O)CC(C)C)[C@@H]1C[C@H](C)C[C@]2(C[C@H](C)C[C@](CC(C)=O)(OC(C)=O)O2)O1)OC(=O)CC(C)C
IC50 [1]: > 10000 nM

Compound: COc1ccc2c(c1)[nH]c1c(C)nccc12 [HARMINE]
IC50 (Acetylcholinesterase): 11300 nM | IC50 [6]: 1900 nM

Compound: Dual specificity tyrosine-phosphorylation-regulated kinase 1A (Homo sapiens) (from UniProt Q13627)
Km [7]: 37 µM

Compound: CCC(=O)O[C@@H](C/C=C(\C)C(=O)OC)[C@H](C(=O)OC)[C@@H](OC(C)=O)[C@@H](C[C@H](C)[C@H](OC(=O)CC(C)C)[C@@H]1C[C@H](C)C[C@]2(C[C@H](C)C[C@@](O)(CC(C)=O)O2)O1)OC(=O)CC(C)C
IC50 [1]: > 10000 nM
